Read-outs that look alike come from different tables or passages of the source.
Legend:
[1] = pH over time of 0.1 M aqueous solutions of polyhydroxy-lactones (reaction with water to free acid); assay type: physicochemical; conditions: for pH in aqueous solution: 0.1 M; for pH: 0.1 M (1.78%) aqueous solution
Source text: In general, because the formulation is to be applied to the skin, it is preferred to have a pH of about three to eight, to minimize irritation, and/or may be in a controlled release formulation, as discussed below. In some cases, an adjustment of the pH of the composition may be desirable because of the tendency of some polyhydroxy-lactones to react with water molecules and form free acid molecules, thereby altering the pH of the overall composition over time until the equilibrium of the reaction has been reached. This lowered pH may cause discomfort to the patient, as the compositions may irritate or sting the skin area when applied. The reaction with water is evidenced by a continued decrease in pH of the solution. As is know in the art, a freshly prepared gluconolactone 1% aqueous solution has pH 3.6. The pH changes to 2.5 after 2 hours. See, The Merck Index, 13th Edition, #4470. […]

[2] = 1% aqueous solution, cited from earlier work

SMILES | pH in aqueous solution ([1]; 1 hour) | pH in aqueous solution ([1]; 6 hours) | pH in aqueous solution ([1]; 24 hours) | pH in aqueous solution ([1]; 48 hours) | pH in aqueous solution ([1]; 72 hours) | pH in aqueous solution ([1]; fresh) | pH ([1]; 0 minutes) | pH ([1]; 60 minutes) | pH ([1]; 360 minutes) | pH ([1]; 4320 minutes) | pH ([2]; after 2 hours) | pH ([2]; freshly prepared)
O=C[C@H](O)[C@H]1OC(=O)[C@@H](O)[C@H]1O [D-glucuronolactone] | 5.7 | 4.8 | 3.4 | 2.6 | 2.3 | 5.7 | – | – | – | – | – | –
O=C1OC[C@@H](O)[C@H]1O [D-erythronolactone] | 6.3 | 6.2 | 5.5 | 3.2 | 3.1 | 6.3 | – | – | – | – | – | –
O=C1O[C@H]([C@@H](O)CO)C(O)=C1O [Control, ascorbic acid, reference compound] | 2.1 | 2.1 | 2.1 | 2.1 | 2.1 | 2.1 | – | – | – | – | – | –
CC1(C)COC(=O)C1O [D-pantolactone] | 6.5 | 6.4 | 5.9 | 5.7 | 5.7 | 6.5 | – | – | – | – | – | –
O=C1O[C@@H]([C@H](O)[C@H](O)CO)[C@@H](O)C1O (stereo partly drawn) [D-glucoheptonolactone] | 5.6 | 3.9 | 3.1 | 2.5 | 2.3 | 5.6 | – | – | – | – | – | –

Now from value to compound, other results behind:

pH in aqueous solution ([1]; 1 hour) | pH in aqueous solution ([1]; 6 hours) | pH in aqueous solution ([1]; 24 hours) | pH in aqueous solution ([1]; 48 hours) | pH in aqueous solution ([1]; 72 hours) | pH in aqueous solution ([1]; fresh) | pH ([1]; 0 minutes) | pH ([1]; 60 minutes) | pH ([1]; 360 minutes) | pH ([1]; 4320 minutes) | SMILES | pH ([2]; after 2 hours) | pH ([2]; freshly prepared)
5.0 | 3.9 | 3.2 | 2.6 | 2.4 | 5.1 | – | – | – | – | O=C1O[C@@H]([C@H](O)CO)[C@H](O)[C@H]1O [D-galactonolactone] | – | –
6.1 | 5.9 | 3.9 | 2.8 | 2.6 | 6.2 | – | – | – | – | O=C1O[C@H](CO)[C@@H](O)[C@H]1O [D-ribonolactone] | – | –
5.8 | 4.6 | 3.5 | 3.0 | 2.7 | 6.2 | – | – | – | – | O=C1O[C@@H](C(O)CO)[C@H](O)C1O (stereo partly drawn) [D-gulonolactone] | – | –
2.0 | 1.9 | 1.9 | 1.9 | 1.8 | 2.1 | 2.1 | 2.0 | 1.9 | 1.8 | O=C1O[C@H](CO)[C@@H](O)[C@H](O)[C@H]1O [D-gluconolactone] | 2.5 | 3.6

— patent US20040220259A1, “Topical treatment of dermatological disorders associated with reactive or dilated blood vessels” (priority 2003, published 2004)
